Measurements from patent US6737383B1, “Herbicidal oxadiazolidines” (priority 1999, dated 2004).

How the values were obtained:
cocklebur = test: Test B pre/postemergence cocklebur; assay type: in vivo, Xanthium strumarium
Summary of the method: (§1)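 Herbicidal effect was estimated by eye on a ten-point control scale after plants spent twelve to sixteen days in a greenhouse following soil or foliar treatment. Foliar sprays targeted plants at one to four leaves; all doses were formulated in a non-phytotoxic solvent with surfactant.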

corn = test: Test B pre/postemergence corn; assay type: in vivo, Zea mays
Summary of the method: as §1

crabgrass = test: Test B pre/postemergence crabgrass; assay type: in vivo, Digitaria sanguinalis
Summary of the method: as §1

giant foxtail = test: Test B pre/postemergence giant foxtail; assay type: in vivo, Setaria faberii
Summary of the method: as §1

morningglory = test: Test B pre/postemergence morningglory; assay type: in vivo, Ipomoea hederacea
Summary of the method: as §1

pigweed = test: Test B pre/postemergence pigweed; assay type: in vivo, Amaranthus retroflexus
Summary of the method: as §1

rape = test: Test B pre/postemergence rape; assay type: in vivo, Brassica napus
Summary of the method: as §1

soybean = test: Test B pre/postemergence soybean; assay type: in vivo, Glycine max
Summary of the method: as §1

sugar beet = test: Test B pre/postemergence sugar beet; assay type: in vivo, Beta vulgaris
Summary of the method: as §1

velvetleaf = test: Test B pre/postemergence velvetleaf; assay type: in vivo, Abutilon theophrasti
Summary of the method: as §1

wheat = test: Test B pre/postemergence wheat; assay type: in vivo, Triticum aestivum
Summary of the method: as §1

wild oat = test: Test B pre/postemergence wild oat; assay type: in vivo, Avena fatua
Summary of the method: as §1

purple nutsedge = test: Test B pre/postemergence purple nutsedge; assay type: in vivo, Cyperus rotundus
Summary of the method: as §1

rice = test: Test B flood test rice; assay type: in vivo, Oryza sativa
Summary of the method: (§2)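 Each value is a visual injury score relative to controls, with 10 meaning complete control and 0 no effect. Evaluation took place twelve to sixteen days after the 2-leaf-stage plants were treated and kept in the greenhouse.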

duck salad = test: Test B flood test duck salad; assay type: in vivo, Heteranthera limosa
Summary of the method: as §2

bamyardgrass = test: Test B flood test barnyardgrass; assay type: in vivo, Echinochloa crus-galli
Summary of the method: as §2

[1] = Postemergence, Rate 250 g/ha, scale 0 to 10
[2] = Postemergence, Rate 500 g/ha, scale of 0 to 10 where 0 is no effect and 10 is complete control
[3] = Preemergence, Rate 62 g/ha, scale of 0 to 10 where 0 is no effect and 10 is complete control
[4] = Preemergence, Rate 125 g/ha, scale of 0 to 10 where 0 is no effect and 10 is complete control
[5] = Preemergence, Rate 250 g/ha, scale 0 to 10, 0 is no effect, 10 is complete control
[6] = Preemergence, Rate 500 g/ha, scale 0 to 10, 0 is no effect, 10 is complete control
[7] = Rate 62 g/ha, Postemergence, scale 0 to 10, 0 no effect, 10 complete control
[8] = Rate 125 g/ha, Postemergence, scale 0 to 10, 0 is no effect, 10 is complete control
[9] = Rate 62 g/ha, flood test species, Pre-emergence, visual evaluation after twelve to sixteen days
[10] = Rate 125 g/ha, under heading Pre-emergence, flood test species, visual evaluation after twelve to sixteen days
[11] = Rate 250 g/ha, Pre-emergence (flood test species), scale 0 to 10, 0 is no effect, 10 is complete control
[12] = Rate 500 g/ha, Pre-emergence, flood test species, scale 0 to 10 (0 no effect, 10 complete control)

`Cc1nc(C)c(C(C)n2c(=O)on(C(=O)N(c3ccc(F)cc3F)C(C)C)c2=O)s1` (centres unmarked) [Compound 443] was tested, and the “Cocklebur plant response rating” value (cocklebur; [1]) was 0, the “Cocklebur plant response rating” value (cocklebur; [2]) was 0 and the “Plant response rating, Cocklebur” value (cocklebur; [3]) was 0. The “Plant response rating, Cocklebur” value (cocklebur; [4]) was 0, the “Cocklebur plant response rating” value (cocklebur; [5]) was 0 and the “Cocklebur plant response rating” value (cocklebur; [6]) was 0. The “Cocklebur plant response rating” value (cocklebur; [7]) was 0, the “Cocklebur plant response rating” value (cocklebur; [8]) was 0 and the “Corn plant response rating” value (corn; [1]) was 0. For the same molecule, the “Corn plant response rating” value (corn; [2]) was 0, the “Plant response rating, Corn” value (corn; [3]) was 0 and the “Plant response rating, Corn” value (corn; [4]) was 0. The “Corn plant response rating” value (corn; [5]) was 0, the “Corn plant response rating” value (corn; [6]) was 0 and the “Corn plant response rating” value (corn; [7]) was 0. For the same molecule, the “Corn plant response rating” value (corn; [8]) was 0, the “Crabgrass plant response rating” value (crabgrass; [1]) was 0 and the “Crabgrass plant response rating” value (crabgrass; [2]) was 0. For the same molecule, the “Plant response rating, Crabgrass” value (crabgrass; [3]) was 5, the “Plant response rating, Crabgrass” value (crabgrass; [4]) was 6 and the “Crabgrass plant response rating” value (crabgrass; [5]) was 9. For the same molecule, the “Crabgrass plant response rating” value (crabgrass; [6]) was 9, the “Crabgrass plant response rating” value (crabgrass; [7]) was 0 and the “Crabgrass plant response rating” value (crabgrass; [8]) was 0. For the same molecule, the “Giant foxtail plant response rating” value (giant foxtail; [1]) was 0, the “Giant foxtail plant response rating” value (giant foxtail; [2]) was 0 and the “Plant response rating, Giant foxtail” value (giant foxtail; [3]) was 3. The “Plant response rating, Giant foxtail” value (giant foxtail; [4]) was 4, the “Giant foxtail plant response rating” value (giant foxtail; [5]) was 10 and the “Giant foxtail plant response rating” value (giant foxtail; [6]) was 10. The “Giant foxtail plant response rating” value (giant foxtail; [7]) was 0, the “Giant foxtail plant response rating” value (giant foxtail; [8]) was 0 and the “Morningglory plant response rating” value (morningglory; [1]) was 4. For the same molecule, the “Morningglory plant response rating” value (morningglory; [2]) was 4, the “Plant response rating, Morningglory” value (morningglory; [3]) was 0 and the “Plant response rating, Morningglory” value (morningglory; [4]) was 0. The “Morningglory plant response rating” value (morningglory; [5]) was 0, the “Morningglory plant response rating” value (morningglory; [6]) was 0 and the “Morningglory plant response rating” value (morningglory; [7]) was 2. For the same molecule, the “Morningglory plant response rating” value (morningglory; [8]) was 3, the “Redroot pigweed plant response rating” value (pigweed; [1]) was 0 and the “Redroot pigweed plant response rating” value (pigweed; [2]) was 0. The “Plant response rating, Redroot pigweed” value (pigweed; [3]) was 0, the “Plant response rating, Redroot pigweed” value (pigweed; [4]) was 0 and the “Redroot pigweed plant response rating” value (pigweed; [5]) was 0. For the same molecule, the “Redroot pigweed plant response rating” value (pigweed; [6]) was 6, the “Redroot pigweed plant response rating” value (pigweed; [7]) was 0 and the “Redroot pigweed plant response rating” value (pigweed; [8]) was 0. The “Rape plant response rating” value (rape; [1]) was 0, the “Rape plant response rating” value (rape; [2]) was 0 and the “Plant response rating, Rape” value (rape; [3]) was 0. The “Plant response rating, Rape” value (rape; [4]) was 0, the “Rape plant response rating” value (rape; [5]) was 0 and the “Rape plant response rating” value (rape; [6]) was 0. The “Rape plant response rating” value (rape; [7]) was 0, the “Rape plant response rating” value (rape; [8]) was 0 and the “Soybean plant response rating” value (soybean; [1]) was 1. The “Soybean plant response rating” value (soybean; [2]) was 2, the “Plant response rating, Soybean” value (soybean; [3]) was 0 and the “Plant response rating, Soybean” value (soybean; [4]) was 0. The “Soybean plant response rating” value (soybean; [5]) was 0, the “Soybean plant response rating” value (soybean; [6]) was 0 and the “Soybean plant response rating” value (soybean; [7]) was 1. For the same molecule, the “Soybean plant response rating” value (soybean; [8]) was 1, the “Sugarbeets plant response rating” value (sugar beet; [1]) was 0 and the “Sugarbeets plant response rating” value (sugar beet; [2]) was 0. For the same molecule, the “Plant response rating, Sugarbeets” value (sugar beet; [3]) was 0, the “Plant response rating, Sugarbeets” value (sugar beet; [4]) was 0 and the “Sugarbeets plant response rating” value (sugar beet; [5]) was 0. For the same molecule, the “Sugarbeets plant response rating” value (sugar beet; [6]) was 0, the “Sugarbeets plant response rating” value (sugar beet; [7]) was 0 and the “Sugarbeets plant response rating” value (sugar beet; [8]) was 0. The “Velvetleaf plant response rating” value (velvetleaf; [1]) was 0, the “Velvetleaf plant response rating” value (velvetleaf; [2]) was 0 and the “Plant response rating, Velvetleaf” value (velvetleaf; [3]) was 0. For the same molecule, the “Plant response rating, Velvetleaf” value (velvetleaf; [4]) was 0, the “Velvetleaf plant response rating” value (velvetleaf; [5]) was 0 and the “Velvetleaf plant response rating” value (velvetleaf; [6]) was 0. For the same molecule, the “Velvetleaf plant response rating” value (velvetleaf; [7]) was 0, the “Velvetleaf plant response rating” value (velvetleaf; [8]) was 0 and the “Wheat plant response rating” value (wheat; [1]) was 0. For the same molecule, the “Wheat plant response rating” value (wheat; [2]) was 0, the “Plant response rating, Wheat” value (wheat; [3]) was 0 and the “Plant response rating, Wheat” value (wheat; [4]) was 0. For the same molecule, the “Wheat plant response rating” value (wheat; [5]) was 0, the “Wheat plant response rating” value (wheat; [6]) was 0 and the “Wheat plant response rating” value (wheat; [7]) was 0. The “Wheat plant response rating” value (wheat; [8]) was 0, the “Wild oats plant response rating” value (wild oat; [1]) was 0 and the “Wild oats plant response rating” value (wild oat; [2]) was 0. The “Plant response rating, Wild oats” value (wild oat; [3]) was 0, the “Plant response rating, Wild oats” value (wild oat; [4]) was 0 and the “Wild oats plant response rating” value (wild oat; [5]) was 0. The “Wild oats plant response rating” value (wild oat; [6]) was 0, the “Wild oats plant response rating” value (wild oat; [7]) was 0 and the “Wild oats plant response rating” value (wild oat; [8]) was 0. The “Nutsedge plant response rating” value (purple nutsedge; [1]) was 0, the “Nutsedge plant response rating” value (purple nutsedge; [2]) was 0 and the “Plant response rating, Nutsedge” value (purple nutsedge; [3]) was 0. For the same molecule, the “Plant response rating, Nutsedge” value (purple nutsedge; [4]) was 0, the “Nutsedge plant response rating” value (purple nutsedge; [5]) was 0 and the “Nutsedge plant response rating” value (purple nutsedge; [6]) was 0. The “Nutsedge plant response rating” value (purple nutsedge; [7]) was 0, the “Nutsedge plant response rating” value (purple nutsedge; [8]) was 0 and the “Plant response rating, Rice (0 to 10 scale, 0 is no effect, 10 is complete control)” value (rice; [9]) was 0. For the same molecule, the “Rice plant response rating (0 to 10 scale, 0 is no effect, 10 is complete control)” value (rice; [10]) was 0, the “Rice plant response rating” value (rice; [11]) was 0 and the “Rice plant response rating” value (rice; [12]) was 0. The “Plant response rating, Ducksalad (0 to 10 scale, 0 is no effect, 10 is complete control)” value (duck salad; [9]) was 0, the “Ducksalad plant response rating (0 to 10 scale, 0 is no effect, 10 is complete control)” value (duck salad; [10]) was 0 and the “Ducksalad plant response rating” value (duck salad; [11]) was 0. For the same molecule, the “Ducksalad plant response rating” value (duck salad; [12]) was 0, the “Plant response rating, Barnyardgrass (0 to 10 scale, 0 is no effect, 10 is complete control)” value (bamyardgrass; [9]) was 0 and the “Barnyardgrass plant response rating (0 to 10 scale, 0 is no effect, 10 is complete control)” value (bamyardgrass; [10]) was 0. The “Barnyardgrass plant response rating” value (bamyardgrass; [11]) was 0 and the “Barnyardgrass plant response rating” value (bamyardgrass; [12]) was 0.
